In patent US11357229B2, “Composition, uses and preparation process thereof, as well as method to ensure high corn crop yield” (priority 2011, dated 2022):

Assays:
Assay type in all cases: in vivo, Zea mays
[1] = test system: corn; assay: Ethephon applied to corn at stage V8, Nova Mutum; methomyl and pyraclostrobin+epoxyconazole added in all treatments; conditions: for Increased Yield: 100,000 plants/ha vs control at normal density
Description: Example 1—Effect of Growth Regulator Ethephon Applied to Corn at the Stage of Development V8
(§1) In the moment of the application, the insecticide methomyl (215 g ha^−1 a.i.) and the fungicide pyraclostrobin+epoxyconazole (99.75+37.5 g ha^−1 a.i.) were added in all treatments, including the control.

[2] = test system: corn; assay: Ethephon applied to corn at stage V6, Nova Mutum; chlorantraniliprole and cyproconazole+azoxystrobin added in all treatments; conditions: for Increased Yield: 100,000 plants/ha vs control at normal density
Description: Example 2—Effect of Growth Regulator Ethephon Applied to Corn at the Stage of Development V6
(§2) In the moment of the application, the insecticide chlorantraniliprole (25 g ha^−1 a.i.) and the fungicide cyproconazole+azoxystrobin (24+60 g ha^−1 a.i.) were added in all treatments, including the control.

[3] = test system: corn; assay: Ethephon+cyclanilide applied to corn at stage V8, Nova Mutum; methomyl and pyraclostrobin+epoxyconazole added in all treatments; conditions: estimation at 100,000 plants per hectare vs control at normal density of sowing (Table 6)
Description: Example 3—Effect of Growth Regulator Ethephon+Cyclanilide Applied to Corn at the Stage of Development V8
as §1

[4] = test system: corn; assay: BF 428-5 applied to corn at stage V6, Nova Mutum; chlorantraniliprole and cyproconazole+azoxystrobin added in all treatments; conditions: V6; 30 DAA; all treatments (Table 11)
Description: Example 6—Effect of Growth Regulator BF 428-5 Applied to Corn at the Stage of Development V6
as §2

[5] = test system: corn plants; assay: Growth regulator applied in the late vegetative stage of corn (V6-V9), inventors' finding; conditions: application in the late vegetative stage (V6-V9)
Text: The solution to such problems related to corn crops would be to limit plant growth through the use of plant growth regulators, commonly used in other crops (cotton, wheat), but without any tradition in corn crop in order to provide the cultivation of high densities of corn plants per hectare with a view to achieving considerable increase in the crop's yield potential, as well as to improving pest and disease control in the crop.

With `O=P(O)(O)CCCl` [Ethephon, 2-chloroethylphosphonic acid] the “effects on the corn plant” value ([1]; V8) was “reduction in shoot length, increased formation of adventitious roots, strengthening of the stem, strengthening of the root system, increased ventilation in the culture, proper development of male and female inflorescences”, the “effect on length and diameter of ears of corn” value ([1]; V8 (Table 1)) was “reduces” and the yield reduction ([1]; V8 (Table 1)) was “not significant”. The shoot length ([1]; V8, 30 DAA, all treatments with application of ethephon (Table 1)) was “less than or equal to 159.1 cm”, the “Ear Diameter” value ([1]; V8, 216 g ha^−1 a.i.) was 50.4 mm and the “Ear Length” value ([1]; V8, 216 g ha^−1 a.i.) was 25.8 cm. For the same compound, the Yield ([1]; V8, 216 g ha^−1 a.i.) was 4335.6 kg/ha, the “Height (shoot length)” value ([1]; V8, 216 g ha^−1 a.i., 30 DAA) was 157.3 cm and the “Population of corn plants 60,000 plants/ha, kg/corn plant” value ([1]; V8, 216 g ha^−1 a.i.) was 0.072 kg/corn plant. For the same compound, the “Population of corn plants 100,000 plants/ha, kg/corn plant” value ([1]; V8, 216 g ha^−1 a.i.) was 0.072 kg/corn plant, the “Yield estimates 100,000 plants/ha” value ([1]; V8, 216 g ha^−1 a.i.) was 7226.0 kg/ha and the “Increased Yield” value ([1]; V8, 216 g ha^−1 a.i.) was 42.4%. The “Ear Diameter” value ([1]; V8, 360 g ha^−1 a.i.) was 51.6 mm, the “Ear Length” value ([1]; V8, 360 g ha^−1 a.i.) was 25.6 cm and the Yield ([1]; V8, 360 g ha^−1 a.i.) was 4253.3 kg/ha. The “Height (shoot length)” value ([1]; V8, 360 g ha^−1 a.i., 30 DAA) was 153.9 cm, the “Population of corn plants 60,000 plants/ha, kg/corn plant” value ([1]; V8, 360 g ha^−1 a.i.) was 0.071 kg/corn plant and the “Population of corn plants 100,000 plants/ha, kg/corn plant” value ([1]; V8, 360 g ha^−1 a.i.) was 0.071 kg/corn plant. For the same compound, the “Yield estimates 100,000 plants/ha” value ([1]; V8, 360 g ha^−1 a.i.) was 7088.8 kg/ha, the “Increased Yield” value ([1]; V8, 360 g ha^−1 a.i.) was 39.7% and the “Ear Diameter” value ([1]; V8, 576 g ha^−1 a.i.) was 50.7 mm. For the same compound, the “Ear Length” value ([1]; V8, 576 g ha^−1 a.i.) was 25.4 cm, the Yield ([1]; V8, 576 g ha^−1 a.i.) was 4680.0 kg/ha and the “Height (shoot length)” value ([1]; V8, 576 g ha^−1 a.i., 30 DAA) was 152.2 cm. For the same compound, the “Population of corn plants 60,000 plants/ha, kg/corn plant” value ([1]; V8, 576 g ha^−1 a.i.) was 0.078 kg/corn plant, the “Population of corn plants 100,000 plants/ha, kg/corn plant” value ([1]; V8, 576 g ha^−1 a.i.) was 0.078 kg/corn plant and the “Yield estimates 100,000 plants/ha” value ([1]; V8, 576 g ha^−1 a.i.) was 7800.0 kg/ha. The “Increased Yield” value ([1]; V8, 576 g ha^−1 a.i.) was 53.7%, the yield increases ([1]; V8, estimation at 100,000 plants per hectare vs control at normal density of sowing (Table 2)) was “more than 39%” and the “effects on the corn plant” value ([2]; V6) was “reduction in shoot length, increased formation of adventitious roots, strengthening of the stem, strengthening of the root system, increased ventilation in the culture, proper development of male and female inflorescences”. The “effect on length and diameter of ears of corn” value ([2]; V6 (Table 3)) was “reduces”, the “yield reduction / increase” value ([2]; V6 (Table 3)) was “yield reduction was significant for some treatments, and the yield increase was also significant for some treatments” and the shoot length ([2]; V6, 30 DAA, all treatments with application of ethephon (Table 3)) was “less than or equal to 152.5 cm”. For the same compound, the “Ear Diameter” value ([2]; V6, 216 g ha^−1 a.i.) was 37.9 mm, the “Ear Length” value ([2]; V6, 216 g ha^−1 a.i.) was 21.4 cm and the Yield ([2]; V6, 216 g ha^−1 a.i.) was 1906.7 kg/ha. The “Height (shoot length)” value ([2]; V6, 216 g ha^−1 a.i., 30 DAA) was 144.3 cm, the “Population of corn plants 60,000 plants/ha, kg/corn plant” value ([2]; V6, 216 g ha^−1 a.i.) was 0.032 kg/corn plant and the “Population of corn plants 100,000 plants/ha, kg/corn plant” value ([2]; V6, 216 g ha^−1 a.i.) was 0.032 kg/corn plant. The “Yield estimates 100,000 plants/ha” value ([2]; V6, 216 g ha^−1 a.i.) was 3177.8 kg/ha, the “Increased Yield” value ([2]; V6, 216 g ha^−1 a.i.) was 10.1% and the “Ear Diameter” value ([2]; V6, 360 g ha^−1 a.i.) was 36.7 mm. For the same compound, the “Ear Length” value ([2]; V6, 360 g ha^−1 a.i.) was 21.1 cm, the Yield ([2]; V6, 360 g ha^−1 a.i.) was 3553.3 kg/ha and the “Height (shoot length)” value ([2]; V6, 360 g ha^−1 a.i., 30 DAA) was 148.5 cm. For the same compound, the “Population of corn plants 60,000 plants/ha, kg/corn plant” value ([2]; V6, 360 g ha^−1 a.i.) was 0.059 kg/corn plant, the “Population of corn plants 100,000 plants/ha, kg/corn plant” value ([2]; V6, 360 g ha^−1 a.i.) was 0.059 kg/corn plant and the “Yield estimates 100,000 plants/ha” value ([2]; V6, 360 g ha^−1 a.i.) was 5922.2 kg/ha. The “Increased Yield” value ([2]; V6, 360 g ha^−1 a.i.) was 105.2%, the “Ear Diameter” value ([2]; V6, 576 g ha^−1 a.i.) was 37.7 mm and the “Ear Length” value ([2]; V6, 576 g ha^−1 a.i.) was 23.3 cm. For the same compound, the Yield ([2]; V6, 576 g ha^−1 a.i.) was 3540.0 kg/ha, the “Height (shoot length)” value ([2]; V6, 576 g ha^−1 a.i., 30 DAA) was 144.9 cm and the “Population of corn plants 60,000 plants/ha, kg/corn plant” value ([2]; V6, 576 g ha^−1 a.i.) was 0.059 kg/corn plant. For the same compound, the “Population of corn plants 100,000 plants/ha, kg/corn plant” value ([2]; V6, 576 g ha^−1 a.i.) was 0.059 kg/corn plant, the “Yield estimates 100,000 plants/ha” value ([2]; V6, 576 g ha^−1 a.i.) was 5900.0 kg/ha and the “Increased Yield” value ([2]; V6, 576 g ha^−1 a.i.) was 104.4%. For the same compound, the yield increases ([2]; V6, estimation at 100,000 plants per hectare vs control at normal density of sowing (Table 4)) was “more than 10.1%”, the yield increases [3] was “more than 44.4%” and the shoot length [4] was “less than or equal to 206.0 cm”. For the same compound, the root system [5] was “stronger root system”.
